# Experimental data reported in the OPERA property sets (Mansouri et al. 2018).
# Where a SMILES comes first, the peptide text is derived from it. The star is where a group is joined. Boc = CC(C)(C)OC(=O)*; NHtBu = CC(C)(C)N*
row,Structure (SMILES),logP
1,CC(=O)OC1CC2(O)C3CCC4CC(OC5CC(O)C(OC6CC(O)C(OC7CC(O)C(O)C(C)O7)C(C)O6)C(C)O5)CCC4(C)C3CCC2(C)C1C1=CC(=O)OC1 (stereo not drawn),2.16
2,Clc1ccc(Cl)c(-c2cc(Cl)c(Cl)c(Cl)c2Cl)c1,7.19
3,CC(C)(C)OC(=O)NC(Cc1ccccc1)C(=O)NC(Cc1ccc(O)cc1)C(=O)O (stereo not drawn) (Boc-Phe-Tyr-OH; configuration not given here),2.79
4,CCCOc1ccccc1NC(=O)OCCN1CCOCC1,2.78
5,Cc1c(O)c(=O)ccn1-c1ccccc1,1.12
6,CN1C(=O)C(=O)c2ccccc2C1=O,0.6
7,CSc1nc(Nc2ccc(Cl)cc2)nc(C(Cl)(Cl)Cl)n1,5.71
8,NS(=O)(=O)c1cc(C(=O)O)cc(N2CCCC2)c1Oc1ccccc1,3.92
9,Cc1ccc(Cl)c(OCC(O)CNC(C)(C)C)c1 (stereo not drawn),2.97
10,O=C(OCCCl)n1cc(F)c(=O)[nH]c1=O,0.02
11,CC1CC2C3CCC4=CC(=O)C=CC4(C)C3(F)C(O)CC2(C)C1(O)C(=O)NCc1ccccc1 (stereo not drawn),3.28
12,O=C(NCCCO)C(F)(F)Cn1cnc([N+](=O)[O-])n1,-0.63
13,c1ccc([C@H]2CN3CCSC3=N2)cc1,1.84
14,CCOCCN(CCOCC)CC(O)c1cc(-c2ccc(Cl)c(Cl)c2)nc2ccccc12 (stereo not drawn),5.76
15,CCN1C(=O)C(=O)c2ccc(Cl)cc2C1=O,1.79
16,Cc1ncc([N+](=O)[O-])n1CC#N,-0.07
17,CCCCCCC(=O)N1CCCC1=O,3.04
18,Cc1ccc(Cl)c(Cl)c1Cl,4.56
19,FC(F)(F)c1ccccc1C1OCC2ON=C(c3ccccc3)C2CO1 (stereo not drawn),4.31
20,CON=C(C(=O)NC1C(=O)N2C(C(=O)OCOC(=O)C(C)(C)C)=CCSC12)c1csc(N)n1 (stereo not drawn),1.76

row,Structure (SMILES),logP
1,CC(=O)C1(O)C(C)CC2C3CCC4=CC(=O)C=CC4(C)C3(F)C(O)CC21C (stereo not drawn),2.35
2,CC(=O)NC(CCCCN)C(=O)NC(Cc1ccccc1)C(=O)NC(CC(C)C)C(N)=O (stereo not drawn) (Ac-Lys-Phe-Leu-NH2; configuration not given here),0.98
3,CC(C)(C)N(NC(=O)c1cccc(F)c1)C(=O)c1ccccc1Cl,2.88
4,COc1cc(OCc2ccccc2CCCN2CCC(O)CC2)cc(OC)c1OC,2.6
5,CC(=O)OC1CC(OC2C(O)CC(OC3CCC4(C)C(CCC5C4CC(O)C4(C)C(C6=CC(=O)OC6)CCC54O)C3)OC2C)OC(C)C1OC1CC(O)C(O)C(C)O1 (stereo not drawn),2
6,O=C(Cn1cnnn1)N[C@@H]1C(=O)N2C(C(=O)O)=C(CSc3nncs3)CS[C@H]12,-0.67
7,CCC(=O)OC1(c2ccccc2)CCN(C)C(C)C1C (stereo not drawn),3.13
8,NC(CCc1ccccc1)C(=O)O (stereo not drawn),-1.2
9,COc1ncnc2c1ncn2C1OC(CO)CC1F (stereo not drawn),0.25
10,O=C(NCCCOc1cccc(CN2CCCCC2)c1)c1ccccc1,3.97
11,O=C1CN=C(c2ccccc2)c2cc(C(F)(F)F)ccc2N1,3.1
12,CCC(=O)C1(c2cccc(OC(=O)OC(C)C)c2)CCN(C)CC1,1.72
13,CCC(=O)C(CS(=O)(=O)c1ccc(C)cc1)c1ccccc1 (stereo not drawn),2.45
14,OCC1COC(Cn2cncn2)(c2ccc(Cl)cc2Cl)O1 (stereo not drawn),1.76
15,Nc1ncc(Cc2cccc(Cl)c2Cl)c(N)n1,2.81
16,O=C(O)c1c(Br)cccc1Br,3.58
17,Cc1nonc1Cc1ccc([N+](=O)[O-])cc1,2.21
18,CCC1COC(Cn2cncn2)(c2ccc([N+](=O)[O-])cc2)O1 (stereo not drawn),1.52
19,COC(=O)C(C#N)=NNc1ccc(S(=O)(=O)C(F)(F)F)cc1,4.22
20,COCC(O)Cn1ncc([N+](=O)[O-])n1 (stereo not drawn),-0.07

row,Structure (SMILES),logP
1,CCCCNC(=O)C1(O)C(C)CC2C3CCC4=CC(=O)C=CC4(C)C3(F)C(O)CC21C (stereo not drawn),3.1
2,CC(=O)Nc1ncnc2c1ncn2C1CC(O)C(CO)O1 (stereo not drawn),-0.19
3,Nc1nc(N)nc(C(Cl)(Cl)Cl)n1,1.24
4,O=C(O)c1cccc2cccc(C(=O)O)c12,1.98
5,C#CCOc1c(Cl)cc(NC=NOCCOCC)cc1Cl,3.7
6,CC(=O)NC(CC(C)C)C(=O)NC(CCC(=O)O)C(=O)NC(Cc1ccccc1)C(N)=O (stereo not drawn) (Ac-Leu-Glu-Phe-NH2; configuration not given here),0.47
7,COc1ccccc1OCc1ccccc1CCCN1CCC(O)CC1,2.82
8,CCOc1cccc(NC(=O)OCCN2CCOCC2)c1,2.5
9,CCC(C)C(NC(=O)C(CC(C)C)NC(C)=O)C(=O)NC(CCC(=O)O)C(N)=O (stereo not drawn) (Ac-Leu-Ile-Glu-NH2; configuration not given here),0.07
10,CO[C@@]1(NC(=O)C(C(=O)O)c2ccc(O)cc2)C(=O)N2C(C(=O)O)=C(CSc3nnnn3C)CO[C@@H]21 (stereo partly drawn),-0.58
11,CC(=O)NC(C)C(=O)NC(CCC(=O)O)C(=O)NC(C)C(=O)NC(C)(C)C (stereo not drawn) (Ac-Ala-Glu-Ala-NHtBu; configuration not given here),-0.67
12,CCCCCCOc1ccccc1NC(=O)OCCN1CCOCC1,4.24
13,Clc1ccc(Cl)c(-c2c(Cl)ccc(Cl)c2Cl)c1Cl,7.12
14,Cc1cc(Cl)cc(Cl)c1,3.99
15,Cn1ccc(=O)cc1,-1.22
16,CC(C)N(C=Nc1ccn(C2CC(O)C(CO)O2)c(=O)n1)C(C)C (stereo not drawn),0.17
17,Clc1ccc(-c2cc(Cl)c(Cl)c(Cl)c2Cl)cc1Cl,7.6
18,O=[N+]([O-])C=C1NCCN1c1ccc(Cl)nc1,-0.23
